# Laboratory results as given in patent US20100254965A1, “Adenosine Signaling in Diagnosis, Treatment, and Prevention of Priapism and Erectile Dysfunction” (BOARD OF REGENTS ,THE UNIVERSITY OF TEXAS SYSTEM, priority 2006, published 2010).
# Assays:
# [1] = test system: corpus cavernosal strips (CCS); test: EFS-induced cGMP in CCS of ADA+ and ADA-/- mice; format: cell-based, mouse; conditions: EFS 5V 30 Hz, MRS1706 (10 nM), ZM241385 (50 nM), L-NAME (100 μM)
# Description: FIG. 19. EFS leads to increased cAMP and cGMP production via A2BR in ADA-deficient mice. (a-b) Corpus cavernosal strips (CCS) of the ADA−/− and ADA+ mice were isolated and treated with 10 μM phenylephrine (PE) to induce precontraction. Then CCS were treated with MRS1706 (10 nM), ZM241385 (50 nM) or L-NAME (100 μM) prior to electrical field stimulation (EFS) at 5V and 30 Hz. 60 second after nerve stimulation, the CCS were quickly frozen and cellular cAMP (a) and cGMP (b) were measured by using commercial enzyme immunoassay kit (Amersham Pharmacia). N=4. Data are expressed as mean±SE. *p<0.05, ADA deficient mice versus the control; **p<0.05, CCS of ADA-deficient mice with MRS1706 and/or L-NAME treatment versus CCS of ADA-deficient mice without treatment; ***p<0.05, CCS of the control mice with MRS1706 and/or L-NAME treatment versus CCS of the control mice without treatment.
# Function experiments. […] The contractility of each isolated corpus cavernosum smooth muscle cells (CCSM) strip was measured using an isometric force transducer (AD Instrument Inc., Georgia, Vt., USA). […] The contractile responses of the strips were analysed by adding 10 μM phenylephrine to the bath, and force changes were recorded in response to drug application and to electrical field stimulation. […]
# [2] = test system: corpus cavernosal smooth muscle cells (CCSM); test: cAMP production in primary corpus cavernosal / penile vascular smooth muscle cells (CCSM, PVSM); format: cell-based, mouse; conditions: 10 min; for adenosine-mediated cAMP induction was blocked: CCSM, MRS1706 10 μM, ZM241385 50 nM
# Description: PVSM were isolated and cultured from mouse penes. The cells were be switched to serum-free medium and treated with different concentrations of adenosine with or without A2B antagonist (MRS1706-1 μM) or A2A agonist (CGS-21680-1 μM) alone for 10 min. Then cellular extracts were collected and cAMP levels were measured using an ELISA kit. The data represent mean±SE.
# Data are presented as mean±SE. *, p<0.01.
# FIG. 18. Adenosine stimulated both cAMP and cGMP induction in corpus cavernosal smooth muscle cells (CCSM) via A2BR activation. (a) Adenosine receptor expression profile in purified primary CCSM. CCSM were purified from adult mouse penes. […] (b) CCSM were isolated and cultured from mouse penes. The cells were switched to serum-free medium and treated with different concentrations of adenosine with or without A2BR antagonist (MRS1706-10 μM), A2AR antagonist (ZM241385-50 nM) or A2AR agonist (CGS-21680-10 μM) alone for 10 min. Then cellular extracts were collected and cAMP levels were measured using an ELISA kit. The data represent mean±SE. *p<0.05, adenosine treated versus the untreated; **p<0.05, adenosine plus MRS1706 or ZM241385 versus the adenosine treated. (c) CCSM were isolated from penes of the wild type and A2BR-deficient mice and cultured with or without adenosine (100 μM), NECA (10 μM), a potent adenosine receptor agonist, forskolin (10 μM), an adenylyl cyclase agonist. After 10 min treatment, the cellular extracts were collected and cAMP levels were measured by using a commercial enzyme immunoassay kit (Amersham Pharmacia). N=4. *p<0.05, adenosine, forskolin and NECA treated versus the untreated control. (d) Corpus cavernosal strips (CCS) were isolated from wild type and A2BR-deficient mice and treated with different concentrations of adenosine in the presence or absence of L-NAME (100 μM) or MRS1706 (10 μM). 10 min after treatment, cellular extracts were collected and cGMP levels were measured by using a commercial enzyme immunoassay kit (Amersham Pharmacia). Data are expressed as mean±SE. *p<0.05, adenosine treated versus the control; **p<0.05, adenosine treated with MRS1706 versus the adenosine treated; ***p<0.05, CCS of A2BR-deficient mice treated with adenosine versus the CCS of wild type mice treated with adenosine. N=6-7. (e) CCSM were isolated from wild type and A2BR deficient mice and cultured with or without adenosine (100 μM), NECA (10 μM), a potent adenosine receptor agonist, forskolin (10 μM), an adenylyl cyclase agonist, or diethylamine-NONOate (DEA/NO) (10 μM). After 10 min treatment, the cellular extracts were collected and cAMP levels were measured by using a commercial enzyme immunoassay kit (Amersham Pharmacia). N=4. *p<0.05, DEA/NO treated versus to the untreated control. (f) Both cAMP and cGMP induction contribute to adenosine-mediated decreased PE-induced phosphorylation of myosin light chain (MLC). CCSM and CCS were isolated and cultured with the treatment of phenylephrine (PE-10 μM) in the presence or absence of adenosine (100 μM) or L-NAME (100 μM). 10 min after treatment, cellular extracts were isolated and western blot analysis were performed. The total MLC and phosphorylated MLC at S20 were detected by specific antibodies.
# Isolation of primary corpus cavernosal smooth muscle cells (CCSM). Corpus cavernosum tissues were dissected as described above. Cavernosal tissue was washed in PBS and minced into […] pieces. Segments were incubated in 5-10 ml enzyme solutions containing 0.02% collagenase A (0.272 U/mg protein, Roche, Mannheim, Germany) and 0.5% elastase (3.73 U/mg protein, Cell system, St Katharinen, Germany) in a 75 mm flask at 37° C. for 6 hours. Enzymatic digestion was terminated by adding 10 ml DMEM supplemented with 10% fetal calf serum (FCS). […]
Compound,EFS-increased levels of cGMP were inhibited [1],adenosine-mediated cAMP induction was blocked [2],cAMP production ([2]; CCSM/PVSM of A2BR deficient (A2B-/-) mice),"cAMP production ([2]; CCSM/PVSM of A2BR deficient (A2B-/-) mice, listed as Adenosine)","cAMP production ([2]; wild type CCSM/PVSM, agent alone)","cAMP production ([2]; wild type CCSM/PVSM, agent alone, listed as Adenosine)"
CCCn1c(=O)c2[nH]c(-c3ccc(OCC(=O)Nc4ccc(C(C)=O)cc4)cc3)nc2n(CCC)c1=O [MRS1706],significantly inhibited,blocked,–,–,–,–
Nc1nc(NCCc2ccc(O)cc2)nc2nc(-c3ccco3)nn12 [ZM241385],not,not,–,–,–,–
Nc1ncnc2c1ncn2[C@@H]1O[C@H](CO)[C@@H](O)[C@H]1O [adenosine],–,–,failed to induce cAMP production,essentially no effect on cAMP levels,induced cAMP,elevate cAMP levels
